One molecule from article PMC6366404, “4-(3-Nitrophenyl)thiazol-2-ylhydrazone derivatives as antioxidants and selective hMAO-B inhibitors: synthesis, biological activity and computational analysis” (Journal of Enzyme Inhibition and Medicinal Chemistry, 2019) can be followed below.

Test [1] is described as follows: DPPH radical scavenging activity.
Test [2] deals with T1, hMAO-B (Homo sapiens, UniProt P27338).
T1 sequence (P27338 1-520): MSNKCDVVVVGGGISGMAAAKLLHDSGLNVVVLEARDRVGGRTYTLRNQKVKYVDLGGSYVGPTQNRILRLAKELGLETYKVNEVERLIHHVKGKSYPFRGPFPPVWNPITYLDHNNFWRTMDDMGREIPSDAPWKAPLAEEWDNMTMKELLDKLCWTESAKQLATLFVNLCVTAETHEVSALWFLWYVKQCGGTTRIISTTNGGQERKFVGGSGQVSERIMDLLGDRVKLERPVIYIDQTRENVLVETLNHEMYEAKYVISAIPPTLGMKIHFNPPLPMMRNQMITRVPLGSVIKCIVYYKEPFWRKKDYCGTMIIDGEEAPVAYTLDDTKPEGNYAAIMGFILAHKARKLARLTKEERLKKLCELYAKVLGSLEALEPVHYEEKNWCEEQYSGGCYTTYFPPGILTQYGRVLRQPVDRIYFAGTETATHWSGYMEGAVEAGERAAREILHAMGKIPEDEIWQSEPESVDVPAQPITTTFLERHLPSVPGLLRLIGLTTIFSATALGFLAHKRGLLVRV
Briefly: hMAO-B inhibition, IC50 determination (kynuramine fluorescence). Format: biochemical. As to the method:
The procedure for the measurement of IC50 values for the inhibition of MAO has been reported. The enzyme reactions were prepared to a volume of […] in potassium phosphate buffer at pH 7.4 (100 mM, made isotonic with KCl) and contained kynuramine (50 μM) and the test inhibitors (0.003–100 µM). Stock solutions of the test inhibitors were prepared in DMSO and added to the reactions to yield 4% DMSO. The enzyme reactions were initiated with the addition of recombinant hMAO-A (0.0075 mg protein/mL) or hMAO-B (0.015 mg protein/mL) and incubated for 20 min at 37 °C. At endpoint, the reactions were terminated with 80 µL sodium hydroxide (2N) and the fluorescence of 4-hydroxyquinoline, the oxidation product of kynuramine, was measured (λex = 310; λem = 400 nm)[33]. 4-Hydroxyquinoline was quantified with a calibration curve (0.047–1.56 μM) and the rate of 4-hydroxyquinoline formation was fitted to the one site competition model of the Prism 5 software package (GraphPad). From the resulting sigmoidal plots, the IC50 values were estimated. All enzyme reactions were carried out in triplicate and IC50 values are given as the mean ± standard deviation (SD).

In test [3] the target is T1, hMAO-B. Briefly: Reversibility of MAO-B inhibition by dialysis. Format: biochemical. The protocol: Stock solutions of the test compounds were prepared in DMSO and added to the incubations to yield 4% DMSO. The samples were dialyzed for 24 h at 4 °C in 80 ml of dialysis buffer using Slide-A-Lyzer® dialysis cassettes (Thermo Scientific) with a molecular weight cut-off of 10,000 and a sample volume capacity of 0.5–3 ml. The dialysis buffer was replaced at 3 and 7 h after the start of dialysis. Following dialysis, the dialysis samples were diluted twofold with the addition of kynuramine to yield a kynuramine concentration and inhibitor concentration of 50 µM and 2 × IC50, respectively. The reactions (500 µL) were incubated for 20 min at 37 °C and terminated with NaOH (400 μL, 2 N) and water (1000 µL). The fluorescence of 4-hydroxyquinoline in these samples was measured as described for the IC50 determination above. […] Undialysed mixtures of MAO-B and the test inhibitors were maintained at 4 °C for 24 h and diluted and assayed as above. All reactions were carried out in triplicate and the residual enzyme catalytic rates are expressed as mean ± SD.
Reversibility of MAO inhibition is an important factor to consider when evaluating the inhibition properties of potential inhibitors. Irreversible MAO inhibitors, particularly of the MAO-A isoform, are associated with dangerous adverse effects such as the cheese reaction, which occurs when irreversible MAO-A inhibitors are taken with tyramine-rich food[51]. […] The samples were diluted twofold and the residual MAO-B activity was measured. For reversible inhibition, dialysis is expected to reverse inhibition by the test inhibitors and restore enzyme activity to the level of the negative control. […] A final experiment consisted of incubations containing MAO-B and tested inhibitors which were not dialyzed, but maintained for 24 h.

For the molecule `CC(=NNc1nc(-c2cccc([N+](=O)[O-])c2)cs1)c1cccs1` [Compound 4, 1-(4-(3-Nitrophenyl)thiazol-2-yl)-2-(1-(thiophen-2-yl)ethylidene)hydrazine], the half-inhibitory concentration (IC50) in test [1] came out at 1170 ± 10 µM; against hMAO-B [2], 0.0018 µM. In addition, the “Selectivity index (SI) for the MAO-B isoform” value at hMAO-B [2] (ratio (IC50 hMAO-A)/(IC50 hMAO-B)) turned out to be 922. In addition, the “Reversibility of MAO-B inhibition” value at hMAO-B [3] (dialysis 24 h) was “partially reversible”. Besides, the “Residual MAO-B activity, undialysed mixtures” value at hMAO-B [3] (inhibitor at 4 × IC50, not dialyzed, maintained 24 h) is given as 33%. The “Residual MAO-B activity after dialysis” value at hMAO-B [3] (inhibitor at 4 × IC50, preincubated 15 min, dialyzed 24 h, relative to negative control) was found to be 61%.
